Reference: article PMC9344462 (Journal of Medicinal Chemistry, 2022)
Where two headings read alike, the source gives them in different places.

Tests used:
[1] = target: PknG (kinase and rubredoxin domains) (Mycobacterium tuberculosis, UniProt P9WI73); assay: Intrinsic tryptophan fluorescence quenching; format: binding
[2] = system: Mtb H37Rv; details: previous results ref 8; cited from earlier work
[3] = system: Mtb H37Rv; format: cell-based, Mycobacterium tuberculosis H37Rv
[4] = system: THP-1-derived macrophages

Sequence of PknG (kinase and rubredoxin domains) (P9WI73 74-405): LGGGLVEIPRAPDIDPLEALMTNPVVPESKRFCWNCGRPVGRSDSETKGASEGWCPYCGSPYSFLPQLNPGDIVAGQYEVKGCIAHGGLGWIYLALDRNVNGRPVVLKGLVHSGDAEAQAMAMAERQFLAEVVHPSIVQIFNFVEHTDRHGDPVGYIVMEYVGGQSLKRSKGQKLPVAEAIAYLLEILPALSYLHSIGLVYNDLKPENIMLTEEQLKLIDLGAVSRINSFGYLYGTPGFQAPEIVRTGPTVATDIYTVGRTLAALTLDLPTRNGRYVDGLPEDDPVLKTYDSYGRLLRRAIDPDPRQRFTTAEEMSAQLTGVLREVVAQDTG

NC(=O)c1c(N)c(C(=O)c2cccs2)n2ccccc12 [B3]
Kd [1]: 3.6 µM

NC(=O)c1c(NC(=O)C2CC2)sc2c1CCCC2 [AX20017]
inhibitory activity on intracellular survival of Mtb within macrophage cells [2]: very similar inhibitory activity

NC(=O)c1c(N)c(C(=O)c2ccc(F)cc2)n2ccccc12 [B1]
Mtb H37Rv intracellular survival [3]: significant decrease | effect on cell viability [4]: none of the compounds showed adverse effects

CC(C)c1ccc(C(=O)c2c(N)c(C(N)=O)c3ccccn23)cc1 [T1]
Mtb H37Rv intracellular survival ([3]; 1 and 10 μM, 24 h and 48 h, […]): significant decrease | effect on cell viability ([4]; 10 μM, 3, 24 and 48 h): none of the compounds showed adverse effects

NC(=O)c1c(N)c(C(=O)c2ccc(Cl)c(Cl)c2)n2ccccc12 [B4]
Kd [1]: 13 µM
